# Square brackets hold non-standard residues; d marks the D form. Peptide text beside a SMILES is read from it.
# Assays:
# [1] = Induction of programmed cell death in human MEC1 cells at 200 uM after 2 hrs by Annexin-V/propidium iodide staining based FACS analysis; type: functional
# [2] = Drug degradation in human serum at 10 mg/ml after 2 hrs by HPLC analysis; type: ADME
# [3] = Aqueous solubility of compound in 50 mM sodium succinate buffer at >1 mM at pH 5 by 1D 1H NMR spectroscopic analysis; type: physicochemical
# [4] = Aqueous solubility of compound in 50 mM sodium succinate buffer at 2 mM at pH 5 by 1D 1H NMR spectroscopic analysis; type: physicochemical
# [5] = Metabolic stability in human serum at 10 mg/ml at 37 degC after 2 hrs by HPLC analysis; type: ADME
# [6] = Induction of programmed cell death in human MEC1 cells at 50 uM after 2 hrs by Annexin-V/propidium iodide staining based FACS analysis; type: functional
# A549 [7] = assay: Induction of apoptosis in human A549 cells assessed as early apoptotic cells at 200 uM after 2 hrs by Annexin-V/propidium iodide staining based FACS analysis (reference value: 2%); type: functional
# A549 [8] = assay: Induction of apoptosis in human A549 cells assessed as late apoptotic cells at 200 uM after 2 hrs by Annexin-V/propidium iodide staining based FACS analysis (reference value: 5%); type: functional
# MCF7 [9] = assay: Induction of apoptosis in human MCF7 cells assessed as early apoptotic cells at 200 uM after 2 hrs by Annexin-V/propidium iodide staining based FACS analysis (reference value: 4%); type: functional
# MCF7 [10] = assay: Induction of apoptosis in human MCF7 cells assessed as late apoptotic cells at 200 uM after 2 hrs by Annexin-V/propidium iodide staining based FACS analysis (reference value: 22%); type: functional
# HCT-116 [11] = assay: Induction of apoptosis in human HCT116 cells assessed as early apoptotic cells at 200 uM after 2 hrs by Annexin-V/propidium iodide staining based FACS analysis (reference value: 4%); type: functional
# HCT-116 [12] = assay: Induction of apoptosis in human HCT116 cells assessed as late apoptotic cells at 200 uM after 2 hrs by Annexin-V/propidium iodide staining based FACS analysis (reference value: 5%); type: functional
# [13] = Induction of programmed cell death in human A549 cells at 50 uM after 2 hrs by Annexin-V/propidium iodide staining based FACS analysis; type: functional
# [14] = Induction of programmed cell death in human HCT116 cells at 50 uM after 2 hrs by Annexin-V/propidium iodide staining based FACS analysis; type: functional, HCT-116
# [15] = Induction of programmed cell death in human HCT116 cells at 200 uM after 2 hrs by Annexin-V/propidium iodide staining based FACS analysis; type: functional, HCT-116
# A549 [16] = assay: Induction of programmed cell death in human A549 cells after 2 hrs by Annexin-V/propidium iodide staining based FACS analysis; type: functional
# HCT-116 [17] = assay: Induction of programmed cell death in human HCT116 cells after 2 hrs by Annexin-V/propidium iodide staining based FACS analysis; type: functional
# MCF7 [18] = assay: Induction of programmed cell death in human MCF7 cells after 2 hrs by Annexin-V/propidium iodide staining based FACS analysis; type: functional
# [19] = molecular target: Leukocyte surface antigen CD47 (Homo sapiens, UniProt Q08722); assay: Binding affinity to CD47 receptor in human biotinylated MEC1 cell membranes by biolayer interferometry
# Chain of Leukocyte surface antigen CD47 (Q08722 whole entry): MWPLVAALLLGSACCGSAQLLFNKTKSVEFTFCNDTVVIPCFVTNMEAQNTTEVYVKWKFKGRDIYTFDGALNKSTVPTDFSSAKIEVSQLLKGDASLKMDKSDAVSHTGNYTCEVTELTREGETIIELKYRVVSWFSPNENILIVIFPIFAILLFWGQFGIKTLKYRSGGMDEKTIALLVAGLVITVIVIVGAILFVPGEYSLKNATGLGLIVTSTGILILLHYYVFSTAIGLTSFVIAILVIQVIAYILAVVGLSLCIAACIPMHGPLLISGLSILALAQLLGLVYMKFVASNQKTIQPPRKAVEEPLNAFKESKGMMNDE
molecule,measurement,setting,value
CSCC[C@H](NC(=O)[C@@H](NC(=O)[C@@H](NC(=O)[C@H](Cc1ccc(O)cc1)NC(=O)[C@H](Cc1ccccc1)NC(=O)[C@H](CCCNC(=N)N)NC(=O)[C@H](N)CCCCN)C(C)C)C(C)C)C(=O)N[C@@H](C)C(=O)N[C@@H](CCCCN)C(=O)N[C@H](CCCCN)C(=O)O (H-[dK]RFYVVMAK[dK]-OH),Activity,[1],35%
CSCC[C@H](NC(=O)[C@@H](NC(=O)[C@@H](NC(=O)[C@H](Cc1ccc(O)cc1)NC(=O)[C@H](Cc1ccccc1)NC(=O)[C@H](C)NC(=O)[C@H](N)CCCCN)C(C)C)C(C)C)C(=O)N[C@@H](Cc1c[nH]c2ccccc12)C(=O)N[C@@H](CCCCN)C(=O)N[C@H](CCCCN)C(=O)O (H-[dK]AFYVVMWK[dK]-OH),Activity,[1],44%
Ac-KRFYVVMWKK-NH2,Stability,[2],Unstable
same,solubility,[3],Soluble
same,Activity,[1],30%
CSCC[C@H](NC(=O)[C@@H](NC(=O)[C@@H](NC(=O)[C@H](Cc1ccc(O)cc1)NC(=O)[C@H](Cc1ccccc1)NC(=O)[C@@H](N)CCCNC(=N)N)C(C)C)C(C)C)C(=O)N[C@@H](Cc1c[nH]c2ccccc12)C(=O)N[C@@H](CCCCN)C(=O)O,solubility at 2000 µM,"[4]; 50 mM sodium succinate buffer, pH 5",30 µM
same,Activity,[1],13%
CSCC[C@H](NC(=O)[C@@H](NC(=O)[C@@H](NC(=O)[C@H](Cc1ccc(O)cc1)NC(=O)[C@H](Cc1ccccc1)NC(=O)[C@H](CCCNC(=N)N)NC(=O)[C@H](N)CCCCN)C(C)C)C(C)C)C(=O)N[C@@H](Cc1c[nH]c2ccccc12)C(=O)N[C@@H](CCCCN)C(=O)N[C@H](CCCCN)C(=O)O,Stability,[5],Stable
same,solubility,[3],Soluble
same,Activity,[1],63%
same,Activity,[6],25%
same,Activity,A549 [7],5%
same,Activity,A549 [8],60%
same,Activity,MCF7 [9],6%
same,Activity,MCF7 [10],52%
same,Activity,HCT-116 [11],4%
same,Activity,HCT-116 [12],77%
same,Activity,[13],25%
same,Activity,[14],38%
same,Activity,[15],80%
same,Activity,A549 [16],Dose-dependent effect
same,Activity,HCT-116 [17],Dose-dependent effect
same,Activity,MCF7 [18],Dose-dependent effect
CSCC[C@H](NC(=O)[C@@H](NC(=O)[C@@H](NC(=O)[C@H](Cc1ccc(O)cc1)NC(=O)[C@H](Cc1ccccc1)NC(=O)[C@H](CCCNC(=N)N)NC(C)=O)C(C)C)C(C)C)C(=O)N[C@@H](Cc1c[nH]c2ccccc12)C(=O)N[C@@H](CCCCN)C(N)=O,Stability,[5],Stable
same,solubility,"[4]; buffer, pH 5, 2000 µM",Insoluble
same,Activity,[1],27%
CCCCC(NC(=O)[C@@H](NC(=O)[C@@H](NC(=O)[C@H](Cc1ccc(O)cc1)NC(=O)[C@H](Cc1ccccc1)NC(=O)[C@H](CCCNC(=N)N)NC(=O)[C@H](N)CCCCN)C(C)C)C(C)C)C(=O)N[C@@H](Cc1c[nH]c2ccccc12)C(=O)N[C@@H](CCCCN)C(=O)N[C@H](CCCCN)C(=O)O (some centres undefined),Kd,[19],18 µM
same,Activity,[1],47%
CSCC[C@H](NC(=O)[C@@H](NC(=O)[C@@H](NC(=O)[C@H](Cc1ccc(O)cc1)NC(=O)[C@H](C)NC(=O)[C@H](CCCNC(=N)N)NC(=O)[C@H](N)CCCCN)C(C)C)C(C)C)C(=O)N[C@@H](Cc1c[nH]c2ccccc12)C(=O)N[C@@H](CCCCN)C(=O)N[C@H](CCCCN)C(=O)O (H-[dK]RAYVVMWK[dK]-OH),Activity,[1],6%
